Earlier results, collected in patent US20140212515A1, “COMPOSITION AND METHODS FOR OPTIMIZING HEALTH OF CANCER PATIENTS BY THE ADMINISTRATION OF SODIUM SELENITE AND VITAMIN K3” (priority 2013, published 2014).

Tested on: rat pancreatic cancer cells

CC1=CC(=O)c2ccccc2C1=O [Menadione, 2-Methyl-1,4-Napthoquinone]
proliferation of rat pancreatic cancer cells: inhibit the proliferation
